Experimental data: PubChem BioAssay (NCI)
Values joined by “and” are separate entries in the source; they are usually repeats but may differ in a detail not shown here. Identical values can stand only once.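 Cultured in 96-well plates, cells were exposed to test compound for 48 hours across five concentrations. GI50: concentration for 50% inhibition of growth. TGI is the concentration that stops growth completely.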

Assays:
Experiment in all cases: inhibition of tumour cell growth, NCI panel, 48 h
DMS 273 small cell lung = test system: DMS 273 small cell lung
DLD-1 colon = test system: DLD-1 colon
HOP-18 NSCLC = test system: HOP-18 NSCLC
M19-MEL melanoma = test system: M19-MEL melanoma
LXFL 529 NSCLC = test system: LXFL 529 NSCLC
RXF-631 renal = test system: RXF-631 renal
KM20L2 colon = test system: KM20L2 colon
XF 498 CNS = test system: XF 498 CNS

| SMILES | TGI (DMS 273 small cell lung) [µM] | TGI (DLD-1 colon) | TGI (HOP-18 NSCLC) [µM] | TGI (M19-MEL melanoma) | TGI (LXFL 529 NSCLC) [µM] | GI50 (DLD-1 colon) [µM] | GI50 (M19-MEL melanoma) [µM] | TGI (RXF-631 renal) [µM] | TGI (KM20L2 colon) [µM] | TGI (XF 498 CNS) [µM] |
| --- | --- | --- | --- | --- | --- | --- | --- | --- | --- | --- |
| O=c1cc(-c2ccccc2)[nH]c2cc(F)cc(F)c12 | > 100 | > 100 µM | > 100 | > 100 µM | > 100 |  |  |  |  |  |
| COc1cc(C(=O)N[C@H]2CCc3cc(OC)c(OC)c(OC)c3-c3ccc(SC)c(=O)cc32)cc(OC)c1OC | > 100 | 25 µM and > 100 µM |  | 25 µM and > 100 µM |  | 0.0234 | 0.0156 | > 100 |  |  |
| CC1(C)OC(=S)N(c2ccccc2)C12C=Cc1cc3ccccc3nc1S2 (configuration not stated) | > 100 | 97 µM |  | > 100 µM | > 100 |  |  |  | > 100 | > 100 |
